ChEMBL document CHEMBL5032516, “Synthesis and structural characterization of a monocarboxylic inhibitor for GRB2 SH2 domain” (Bioorg Med Chem Lett, 2021)

Assays:
[1] = molecular target: T1, Growth factor receptor-bound protein 2 (Homo sapiens, UniProt P62993); test: Displacement of FITC-Ahx-PVPePYINQSVPKRK-NH2 from N-terminal His6-tagged human full length GRB2 (1 to 217 residues) expressed in Escherichia coli by fluorescence anisotropy assay
[2] = Permeability of compound assessed as percentage transport at 500 uM after 5 hrs by PAMPA assay; format: ADME
[3] = molecular target: T1, Growth factor receptor-bound protein 2
[4] = Apparent permeability of compound at 500 uM after 5 hrs by PAMPA assay; format: ADME

T1 sequence (P62993 whole entry, the tested form may be a part): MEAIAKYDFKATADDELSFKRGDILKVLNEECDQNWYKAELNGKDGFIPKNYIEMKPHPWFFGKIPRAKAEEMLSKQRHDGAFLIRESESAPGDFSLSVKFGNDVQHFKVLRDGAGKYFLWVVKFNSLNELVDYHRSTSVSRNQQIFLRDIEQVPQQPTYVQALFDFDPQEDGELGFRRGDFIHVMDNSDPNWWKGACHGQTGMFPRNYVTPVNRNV

Row | Structure (SMILES) | IC50 [1] [nM] | permeability [2] [%] | Ki [3] [nM] | Papp at 5 h, 500 µM [4] [×10⁻⁶ cm/s]
1 | NC(=O)C[C@@H]1NC(=O)C2(CCCCC2)NC(=O)C[C@@H](c2ccc(CP(=O)(O)O)cc2)/C=C/C[C@@H](Cc2cccc3ccccc23)CNC1=O | 350 | 0 | 16 | 
2 | COC(=O)Cc1ccc([C@H]2/C=C/C[C@@H](Cc3cccc4ccccc34)CNC(=O)[C@H](CC(N)=O)NC(=O)C3(CCCCC3)NC(=O)C2)cc1 | > 20000 |  |  | 
3 | NC(=O)C[C@@H]1NC(=O)C2(CCCCC2)NC(=O)C[C@@H](c2ccc(CC(=O)O)cc2)/C=C/C[C@@H](Cc2cccc3ccccc23)CNC1=O | 740 | 24.3 | 140 | 19.2
